# Test results taken from patent US20050180971A1, “Cancer therapy” (priority 2002, published 2005).
# Several values for one entry are separate records, joined by “and”; a condition that tells them apart may be missing. Equal entries are not always repeated.
# System: AE 17 cells
# Assay: Murine mesothelioma model: subcutaneous AE 17 tumor challenge, tumor area by callipers
# Format: in vivo, C57/B16 mice
# Excerpt: Malignant mesothelioma in humans is an asbestos induced, incurable tumor that has a particularly poor prognosis. Average time from diagnosis to death being only eight months (Musk and Woodward, 1982). A murine model was developed by researchers in the Department of Medicine at the University of Western Australia to further the development of suitable interventions (Davies et al., 1992).
# Day 0 was defined as the day of tumor cell inoculation with 1×10^6 AE 17 cells subcutaneously. The AE 17 tumor cell line was derived from C57/B16 mice and inoculated back into the same strain. This point will be referred to as a tumor challenge henceforth. Three groups of 5 mice were all challenged in this way. Subsequently the first of the groups was given a single ip dose of vinblastine (Vb) at 6 mg/kg body weight exactly 14 days post tumor challenge (Vb 19/11/01 group). The second group of 5 mice were similarly treated the next day; 15 days post tumor challenge (Vb 20/11/01). The third group received no Vb treatment (No treatment/control group).
# Tumor measurements were taken from Day 14 onwards with callipers (2 diameters at right angles to each other in mm's). These two diameters are then multiplied together to give a mm^2 value that is known from past experience to correlate well with both tumor volume and tumor mass.
# [1] = single ip Vb 6 mg/kg on day 14 post tumor challenge, measured day 14 (19-Nov)
# [2] = single ip Vb 6 mg/kg on day 14 post tumor challenge, measured day 15 (20-Nov)
# [3] = single ip Vb 6 mg/kg on day 14 post tumor challenge, measured day 18 (23-Nov)
# [4] = single ip Vb 6 mg/kg on day 14 post tumor challenge, measured day 21 (26-Nov)
# [5] = single ip Vb 6 mg/kg on day 14 post tumor challenge, measured day 24 (29-Nov)
# [6] = single ip Vb 6 mg/kg on day 14 post tumor challenge, measured day 25 (30-Nov)
# [7] = single ip Vb 6 mg/kg on day 14 post tumor challenge, measured day 28 (3-Dec)
# [8] = single ip Vb 6 mg/kg on day 14 post tumor challenge, measured day 30 (5-Dec)
# [9] = single ip Vb 6 mg/kg on day 15 post tumor challenge, measured day 14 (19-Nov), before treatment
# [10] = single ip Vb 6 mg/kg on day 15 post tumor challenge, measured day 15 (20-Nov)
# [11] = single ip Vb 6 mg/kg on day 15 post tumor challenge, measured day 18 (23-Nov)
# [12] = single ip Vb 6 mg/kg on day 15 post tumor challenge, measured day 21 (26-Nov)
# [13] = single ip Vb 6 mg/kg on day 15 post tumor challenge, measured day 24 (29-Nov)
# [14] = single ip Vb 6 mg/kg on day 15 post tumor challenge, measured day 25 (30-Nov)
# [15] = single ip Vb 6 mg/kg on day 15 post tumor challenge, measured day 28 (3-Dec)
# [16] = single ip Vb 6 mg/kg on day 15 post tumor challenge, measured day 30 (5-Dec)
smiles,measurement,setting,value
"CC[C@]1(O)C[C@@H]2CN(CCc3c([nH]c4ccccc34)[C@@](C(=O)OC)(c3cc4c(cc3OC)N(C)[C@H]3[C@@](O)(C(=O)OC)[C@H](OC(C)=O)[C@]5(CC)C=CCN6CC[C@]43[C@@H]65)C2)C1 [Vb, vinblastine]",mice with significant tumor development,Vb treatment day 15 post challenge,4/5
same,protection from tumor development,single Vb treatment day 14 post challenge,heavily protected from tumor development
same,effectiveness,"single Vb treatment day 14 post challenge, 5 mice",80%
same,"Tumor area (2 diameters multiplied), individual animal","single ip Vb 6 mg/kg on day 14 post tumor challenge, measured (7-Dec)",0 mm^2 (4×) and 70 mm^2
same,"Tumor area (2 diameters multiplied), individual animal",[1],4 mm^2 (4×) and 0.5 mm^2
same,"Tumor area, group mean",[1],3.3 mm^2
same,"Tumor area (2 diameters multiplied), individual animal",[2],0.5 mm^2 (3×) and 0 mm^2 (2×)
same,"Tumor area, group mean",[2],0.3 mm^2
same,"Tumor area (2 diameters multiplied), individual animal",[3],0 mm^2 (2×) and 2 mm^2 and 1 mm^2 and 0.5 mm^2
same,"Tumor area, group mean",[3],0.7 mm^2
same,"Tumor area (2 diameters multiplied), individual animal",[4],0.5 mm^2 (2×) and 1 mm^2 and 0 mm^2 (2×)
same,"Tumor area, group mean",[4],0.4 mm^2
same,"Tumor area (2 diameters multiplied), individual animal",[5],0 mm^2 (3×) and 6 mm^2 and 4 mm^2
same,"Tumor area, group mean",[5],2 mm^2
same,"Tumor area (2 diameters multiplied), individual animal",[6],0 mm^2 (3×) and 1 mm^2 and 0.5 mm^2
same,"Tumor area, group mean",[6],0.3 mm^2
same,"Tumor area (2 diameters multiplied), individual animal",[7],0 mm^2 (3×) and 0.5 mm^2 and 40 mm^2
same,"Tumor area, group mean",[7],8.1 mm^2
same,"Tumor area (2 diameters multiplied), individual animal",[8],0 mm^2 (4×) and 70 mm^2
same,"Tumor area, group mean",[8],14 mm^2
same,"Tumor area, group mean","single ip Vb 6 mg/kg on day 14 post tumor challenge, measured day 32 (7-Dec)",14 mm^2
same,"Tumor area (2 diameters multiplied), individual animal","single ip Vb 6 mg/kg on day 15 post tumor challenge, measured (7-Dec)",81 mm^2 and 0.5 mm^2 and 90 mm^2 (2×)
same,"Tumor area (2 diameters multiplied), individual animal",[9],0.5 mm^2 (3×) and 4 mm^2 and 9 mm^2
same,"Tumor area, group mean",[9],2.9 mm^2
same,"Tumor area (2 diameters multiplied), individual animal",[10],1 mm^2 and 0.5 mm^2 (3×) and 0 mm^2
same,"Tumor area, group mean",[10],0.5 mm^2
same,"Tumor area (2 diameters multiplied), individual animal",[11],4 mm^2 and 0.5 mm^2 (2×) and 0 mm^2 (2×)
same,"Tumor area, group mean",[11],1 mm^2
same,"Tumor area (2 diameters multiplied), individual animal",[12],9 mm^2 and 0.5 mm^2 (3×) and 8 mm^2
same,"Tumor area, group mean",[12],3.7 mm^2
same,"Tumor area (2 diameters multiplied), individual animal",[13],16 mm^2 and 0.5 mm^2 and 25 mm^2 and 12 mm^2
same,"Tumor area, group mean",[13],13.4 mm^2
same,"Tumor area (2 diameters multiplied), individual animal",[14],20 mm^2 and 0.5 mm^2 and 30 mm^2 and 25 mm^2
same,"Tumor area, group mean",[14],18.9 mm^2
same,"Tumor area (2 diameters multiplied), individual animal",[15],42 mm^2 and 0.5 mm^2 and 56 mm^2 and 90 mm^2
same,"Tumor area, group mean",[15],47.1 mm^2
same,"Tumor area (2 diameters multiplied), individual animal",[16],56 mm^2 and 0.5 mm^2 and 90 mm^2 (2×)
same,"Tumor area, group mean",[16],59.1 mm^2
same,"Tumor area, group mean","single ip Vb 6 mg/kg on day 15 post tumor challenge, measured day 32 (7-Dec)",65.4 mm^2
